Reference: ChEMBL document CHEMBL5113453, “Design, synthesis, and biological evaluation of a new series of pyrazole derivatives: Discovery of potent and selective JNK3 kinase inhibitors” (Bioorg Med Chem, 2022)

How the values were obtained:
NCI-H226 = experiment: Antiproliferative activity against human NCI-H226 cells measured after 48 hrs by SRB assay; assay type: functional, cell-based
SK-MEL-28 = experiment: Antiproliferative activity against human SK-MEL-28 cells measured after 48 hrs by SRB assay; assay type: functional, cell-based
T47D = experiment: Antiproliferative activity against human T47D cells measured after 48 hrs by SRB assay; assay type: functional, cell-based
786-0 = experiment: Antiproliferative activity against human 786-0 cells measured after 48 hrs by SRB assay; assay type: functional, cell-based
UO-31 = experiment: Antiproliferative activity against human UO-31 cells measured after 48 hrs by SRB assay; assay type: functional, cell-based
HOP-92 = experiment: Antiproliferative activity against human HOP-92 cells measured after 48 hrs by SRB assay; assay type: functional, cell-based
OVCAR-3 = experiment: Antiproliferative activity against human OVCAR-3 cells measured after 48 hrs by SRB assay; assay type: functional, cell-based
SF-539 = experiment: Antiproliferative activity against human SF-539 cells measured after 48 hrs by SRB assay; assay type: functional, cell-based
NCI/ADR-RES = experiment: Antiproliferative activity against human NCI-ADR-RES cells measured after 48 hrs by SRB assay; assay type: functional, cell-based
OVCAR-4 = experiment: Antiproliferative activity against human OVCAR-4 cells measured after 48 hrs by SRB assay; assay type: functional, cell-based
M14 = experiment: Antiproliferative activity against human M14 cells measured after 48 hrs by SRB assay; assay type: functional, cell-based
OVCAR-5 = experiment: Antiproliferative activity against human OVCAR-5 cells measured after 48 hrs by SRB assay; assay type: functional, cell-based
COLO 205 = experiment: Antiproliferative activity against human COLO 205 cells measured after 48 hrs by SRB assay; assay type: functional, cell-based
U-251 = experiment: Antiproliferative activity against human U-251 cells measured after 48 hrs by SRB assay; assay type: functional, cell-based
SR = experiment: Antiproliferative activity against human SR cells measured after 48 hrs by SRB assay; assay type: functional, cell-based
A498 = experiment: Antiproliferative activity against human A498 cells measured after 48 hrs by SRB assay; assay type: functional, cell-based
MDA-MB-435 = experiment: Antiproliferative activity against human MDA-MB-435 cells measured after 48 hrs by SRB assay; assay type: functional, cell-based
SNB-75 = experiment: Antiproliferative activity against human SNB-75 cells measured after 48 hrs by SRB assay; assay type: functional, cell-based
SK-MEL-2 = experiment: Antiproliferative activity against human SK-MEL-2 cells measured after 48 hrs by SRB assay; assay type: functional, cell-based
WI-38 = experiment: Antiproliferative activity against human WI-38 cells measured by MTT assay; assay type: functional, cell-based
KM12 = experiment: Antiproliferative activity against human KM12 cells measured after 48 hrs by SRB assay; assay type: functional, cell-based
CCRF-CEM = experiment: Antiproliferative activity against human CCRF-CEM cells measured after 48 hrs by SRB assay; assay type: functional, cell-based
MDA-MB-231 = experiment: Antiproliferative activity against human MDA-MB-231 cells measured after 48 hrs by SRB assay; assay type: functional, cell-based
NCI-H460 = experiment: Antiproliferative activity against human NCI-H460 cells measured after 48 hrs by SRB assay; assay type: functional, cell-based
MCF7 = experiment: Antiproliferative activity against human MCF7 cells measured after 48 hrs by SRB assay; assay type: functional, cell-based
HCC 2998 = experiment: Antiproliferative activity against human HCC 2998 cells measured after 48 hrs by SRB assay; assay type: functional, cell-based
SN12C = experiment: Antiproliferative activity against human SN12C cells measured after 48 hrs by SRB assay; assay type: functional, cell-based
UACC-62 = experiment: Antiproliferative activity against human UACC-62 cells measured after 48 hrs by SRB assay; assay type: functional, cell-based
[1] = biological target: Mitogen-activated protein kinase 10 (Homo sapiens, UniProt P53779); experiment: Inhibition of JNK3 (unknown origin)
Chain of Mitogen-activated protein kinase 10 (P53779 whole entry): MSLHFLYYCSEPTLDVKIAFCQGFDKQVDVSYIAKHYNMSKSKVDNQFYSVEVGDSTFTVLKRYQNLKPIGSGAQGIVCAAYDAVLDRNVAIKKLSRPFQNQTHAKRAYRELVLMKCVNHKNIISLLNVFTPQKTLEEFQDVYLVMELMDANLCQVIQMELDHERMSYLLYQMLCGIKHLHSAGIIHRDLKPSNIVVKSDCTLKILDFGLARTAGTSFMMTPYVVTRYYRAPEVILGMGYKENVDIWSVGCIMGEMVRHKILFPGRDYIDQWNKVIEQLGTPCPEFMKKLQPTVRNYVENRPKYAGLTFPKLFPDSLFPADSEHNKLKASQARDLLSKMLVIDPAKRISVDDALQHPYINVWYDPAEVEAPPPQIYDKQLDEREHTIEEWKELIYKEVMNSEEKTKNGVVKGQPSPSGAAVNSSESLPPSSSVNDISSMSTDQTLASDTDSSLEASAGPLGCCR

TK-10 = experiment: Antiproliferative activity against human TK-10 cells measured after 48 hrs by SRB assay; assay type: functional, cell-based
RPMI-8226 = experiment: Antiproliferative activity against human RPMI-8226 cells measured after 48 hrs by SRB assay; assay type: functional, cell-based
HL-60(TB) = experiment: Antiproliferative activity against human HL-60(TB) cells measured after 48 hrs by SRB assay; assay type: functional, cell-based
SK-OV-3 = experiment: Antiproliferative activity against human SK-OV-3 cells measured after 48 hrs by SRB assay; assay type: functional, cell-based
Malme-3M = experiment: Antiproliferative activity against human Malme-3M cells measured after 48 hrs by SRB assay; assay type: functional, cell-based
SNB-19 = experiment: Antiproliferative activity against human SNB-19 cells measured after 48 hrs by SRB assay; assay type: functional, cell-based
HT-29 = experiment: Antiproliferative activity against human HT-29 cells measured after 48 hrs by SRB assay; assay type: functional, cell-based
BT-549 = experiment: Antiproliferative activity against human BT-549 cells measured after 48 hrs by SRB assay; assay type: functional, cell-based
DU-145 = experiment: Antiproliferative activity against human DU-145 cells measured after 48 hrs by SRB assay; assay type: functional, cell-based
SF-295 = experiment: Antiproliferative activity against human SF-295 cells measured after 48 hrs by SRB assay; assay type: functional, cell-based

COc1cccc(-c2nn(-c3ccccc3)cc2-c2ccnc(NCCCNC(=O)Nc3ccc(F)cc3)c2)c1
IC50 (NCI-H226; NCI-H226, 48 h): 10.8 µM
TGI (NCI-H226; NCI-H226, time 48 hrs): > 37 µM
IC50 (SK-MEL-28; SK-MEL-28, 48 h): 6.57 µM
TGI (SK-MEL-28; SK-MEL-28, time 48 hrs): 15.5 µM
IC50 (T47D; 48 h): 7.95 µM
TGI (T47D; time 48 hrs): > 37 µM
IC50 (786-0; 786-0, 48 h): 9.34 µM
TGI (786-0; 786-0, time 48 hrs): > 37 µM
IC50 (UO-31; UO-31, 48 h): 5.1 µM
TGI (UO-31; UO-31, time 48 hrs): > 37 µM
IC50 (HOP-92; HOP-92, 48 h): 6.25 µM
TGI (HOP-92; HOP-92, time 48 hrs): 31.1 µM
IC50 (OVCAR-3; OVCAR-3, 48 h): 6.18 µM
TGI (OVCAR-3; OVCAR-3, time 48 hrs): > 37 µM
IC50 (SF-539; SF-539, 48 h): 6.34 µM
TGI (SF-539; SF-539, time 48 hrs): 13.4 µM
IC50 (NCI/ADR-RES; 48 h): 7.29 µM
TGI (NCI/ADR-RES; time 48 hrs): 25.4 µM
IC50 (OVCAR-4; OVCAR-4, 48 h): 10.5 µM
TGI (OVCAR-4; OVCAR-4, time 48 hrs): > 37 µM
IC50 (M14; M14, 48 h): 6.71 µM
TGI (M14; M14, time 48 hrs): 19 µM
IC50 (OVCAR-5; OVCAR-5, 48 h): 11.2 µM
TGI (OVCAR-5; OVCAR-5, time 48 hrs): > 37 µM
IC50 (COLO 205; COLO 205, 48 h): 8.17 µM
TGI (COLO 205; COLO 205, time 48 hrs): 29.3 µM
IC50 (U-251; U-251, 48 h): 9.84 µM
TGI (U-251; U-251, time 48 hrs): > 37 µM
IC50 (SR; 48 h): 7.7 µM
TGI (SR; time 48 hrs): > 37 µM
IC50 (A498; A498, 48 h): 7.37 µM
TGI (A498; A498, time 48 hrs): 31.4 µM
IC50 (MDA-MB-435; MDA-MB-435, 48 h): 5.61 µM
TGI (MDA-MB-435; MDA-MB-435, time 48 hrs): 12.8 µM
IC50 (SNB-75; SNB-75, 48 h): 4.18 µM
TGI (SNB-75; SNB-75, time 48 hrs): 22.7 µM
IC50 (SK-MEL-2; SK-MEL-2, 48 h): 6.3 µM
TGI (SK-MEL-2; SK-MEL-2, time 48 hrs): 12.6 µM
IC50 (WI-38): > 20 µM
IC50 (KM12; KM12, 48 h): 10.5 µM
TGI (KM12; KM12, time 48 hrs): > 37 µM
IC50 (CCRF-CEM; 48 h): 8.53 µM
TGI (CCRF-CEM; time 48 hrs): 31.5 µM
IC50 (MDA-MB-231; MDA-MB-231, 48 h): 7.84 µM
TGI (MDA-MB-231; MDA-MB-231, time 48 hrs): 23 µM
IC50 (NCI-H460; NCI-H460, 48 h): 6.54 µM
TGI (NCI-H460; NCI-H460, time 48 hrs): 17.1 µM
IC50 (MCF7; MCF7, 48 h): 7.17 µM
TGI (MCF7; MCF7, time 48 hrs): 18 µM
IC50 (HCC 2998; HCC 2998, 48 h): 7.38 µM
TGI (HCC 2998; HCC 2998, time 48 hrs): 20 µM
IC50 (SN12C; 48 h): 9.83 µM
TGI (SN12C; time 48 hrs): > 37 µM
IC50 (UACC-62; UACC-62, 48 h): 7.57 µM
TGI (UACC-62; UACC-62, time 48 hrs): 24.2 µM
IC50 [1]: > 1 µM
IC50 (TK-10; TK-10, 48 h): 21.2 µM
TGI (TK-10; TK-10, time 48 hrs): > 37 µM
IC50 (RPMI-8226; RPMI-8226, 48 h): 5.96 µM
TGI (RPMI-8226; RPMI-8226, time 48 hrs): 24.6 µM
IC50 (HL-60(TB); HL-60, 48 h): 3.77 µM
TGI (HL-60(TB); HL-60, time 48 hrs): 13.7 µM
IC50 (SK-OV-3; SK-OV-3, 48 h): 10.8 µM
TGI (SK-OV-3; SK-OV-3, time 48 hrs): > 37 µM
IC50 (Malme-3M; 48 h): 5.45 µM
TGI (Malme-3M; time 48 hrs): 10.6 µM
IC50 (SNB-19; SNB-19, 48 h): 12.1 µM
TGI (SNB-19; SNB-19, time 48 hrs): > 37 µM
IC50 (HT-29; HT-29, 48 h): 7.17 µM
TGI (HT-29; HT-29, time 48 hrs): 18.2 µM
IC50 (BT-549; BT-549, 48 h): 6.24 µM
TGI (BT-549; BT-549, time 48 hrs): 20.3 µM
IC50 (DU-145; DU-145, 48 h): 14 µM
TGI (DU-145; DU-145, time 48 hrs): > 37 µM
IC50 (SF-295; SF-295, 48 h): 7.16 µM
TGI (SF-295; SF-295, time 48 hrs): 21.7 µM
